Where “and” joins values, the source holds several entries; their conditions need not be identical. Identical values can stand only once. Like-named read-outs stand apart in the source and are kept apart here.
Legend:
[1] = in words, background; cited from earlier work
housefly adults = format: in vivo
house fly adults = test: Oil spray test, Campbell's turn table method (Test Examples 1 and 2); details: Musca domestica, topical, 24 h, read-out: killing ratio
[2] = tetramethrin + 5 times weight of synergist, relative to tetramethrin alone of same batch
[3] = tetramethrin + 5 times weight of synergist, three batches (tetramethrin alone 0.530, 0.520, 0.570)
[4] = present compound alone, no insecticide
[5] = insecticide alone, no synergist
[6] = insecticide alone, no synergist (reference 1.0)
[7] = 3,4-dimethylphenyl-N-methylcarbamate + synergist, relative to insecticide alone
[8] = 3,4-dimethylphenyl-N-methylcarbamate + synergist, three batches
[9] = allethrin + 5 times weight of synergist, relative to allethrin alone
[10] = allethrin + 5 times weight of synergist, three batches
[11] = natural pyrethrin + 5 times weight of synergist, relative to natural pyrethrin alone
[12] = natural pyrethrin + 5 times weight of synergist, three batches

CCCCOCCOCCOCc1cc2c(cc1CCC)OCO2 [Piperonyl butoxide, α-[2-(butoxyethoxy)-ethoxy]-4,5-methylene-dioxy-2-propyltoluene]
synergistic effect on allethrin and other synthetic pyrethroids [1]: somewhat inferior
synergistic effect on natural pyrethrin [1]: prominent synergistic effect

C#CCOC(=O)C(CC(C)C)(OC)c1ccccc1 (stereo not drawn) [Present compound (6), Propargyl α-(iso-butyl)-α-methoxyphenylacetate]
Ratio of enhancing the killing effect (housefly adults; [2]): 8.0
LD50 (housefly adults; [3]): 0.066 γ/Fly

C=CCOC(=O)C(Cc1ccccc1)(OC)c1ccccc1 (stereo not drawn) [Present compound (13), Allyl α-benzyl-α-methoxyphenylacetate]
Ratio of enhancing the killing effect (housefly adults; [2]): 10.4
LD50 (housefly adults; [3]): 0.050 γ/Fly

C#CCOC(=O)C(OC)(c1ccccc1)C1CCCCC1 (stereo not drawn) [Present compound (9), Propargyl α-cyclohexyl-α-methoxyphenylacetate]
Ratio of enhancing the killing effect (housefly adults; [2]): 4.8
LD50 (housefly adults; [3]): 0.111 γ/Fly

C#CCCCCOC(=O)C(CCC)(OCC)c1ccccc1 (stereo not shown) [Present compound (17)]
Ratio of enhancing the killing effect (housefly adults; [2]): 8.3
LD50 (housefly adults; [3]): 0.063 γ/Fly

C#CCOCC(CC=C)(OCC)c1ccccc1 (stereo not drawn) [Present compound (21), Propargyl α-allyl-α-ethoxyphenethyl ether]
Ratio of enhancing the killing effect (housefly adults; [2]): 9.5
LD50 (housefly adults; [3]): 0.060 γ/Fly

C#CCOC(=O)C(OC)(c1ccccc1)c1cccs1 (stereo not drawn) [Present compound (14), Propargyl α-(2-thienyl)-α-methoxyphenylacetate]
Ratio of enhancing the killing effect (housefly adults; [2]): 8.1
LD50 (housefly adults; [3]): 0.064 γ/Fly

C#CCOC(=O)C(OC)(c1ccccc1)C(C)C (stereo not drawn) [Present compound (2), Propargyl α-(iso-propyl)-α-methoxyphenylacetate]
LD50 (housefly adults; [4]): ≥ 2 γ/Fly
Ratio of enhancing the killing effect (housefly adults; [2]): 8.7
LD50 (housefly adults; [3]): 0.061 γ/Fly

C#CCCOC(=O)C(OCCC#C)(c1ccccc1)c1ccccc1 [Present compound (18)]
Ratio of enhancing the killing effect (housefly adults; [2]): 11.1
LD50 (housefly adults; [3]): 0.047 γ/Fly

CC(C)=CC1C(C(=O)OCN2C(=O)C3=C(CCCC3)C2=O)C1(C)C (stereo not shown) [Tetramethrin, N-chrysanthemoxymethyl-3,4,5,6-tetrahydrophthalimide, reference compound]
mortality at 0.05 % (house fly adults): 52%
LD50 (housefly adults; [5]): 0.530 γ/Fly and 0.520 γ/Fly and 0.570 γ/Fly
Ratio of enhancing the killing effect (housefly adults; [6]): 1.0

C#CCOCC(CCC)(OC)c1ccccc1 (stereo not drawn) [Present compound (19), Propargyl α-(n-propyl)-α-methoxyphenethyl ether]
Ratio of enhancing the killing effect (housefly adults; [2]): 8.5
LD50 (housefly adults; [3]): 0.067 γ/Fly

C#CCOC(=O)C(CCC)(OC)c1ccccc1 (stereo not drawn) [Present compound (1), Propargyl α-(n-propyl)-α-methoxyphenylacetate]
Ratio of enhancing the killing effect (housefly adults; [7]): ≥ 18
LD50 (housefly adults; [8]): 0.278 γ/Fly
Ratio of enhancing the killing effect (housefly adults; [9]): 6.6
LD50 (housefly adults; [10]): 0.085 γ/Fly
Ratio of enhancing the killing effect (housefly adults; [11]): 4.9
LD50 (housefly adults; [12]): 0.082 γ/Fly
LD50 (housefly adults; [4]): ≥ 2 γ/Fly
Ratio of enhancing the killing effect (housefly adults; [2]): 7.8
LD50 (housefly adults; [3]): 0.068 γ/Fly

C#CCCCCOCC(CCC)(OC)c1ccccc1 (stereo not shown) [Present compound (27)]
Ratio of enhancing the killing effect (housefly adults; [2]): 7.0
LD50 (housefly adults; [3]): 0.081 γ/Fly

CNC(=O)Oc1cccc2ccccc12 [Carbaryl, reference compound]
Ratio of enhancing the killing effect (housefly adults; [6]): 1.0

C#CCOC(=O)C(CC=C)(OC)c1ccccc1 (stereo not drawn) [Present compound (3), Propargyl α-allyl-α-methoxyphenylacetate]
Ratio of enhancing the killing effect (housefly adults; [7]): ≥ 18
LD50 (housefly adults; [8]): 0.273 γ/Fly
Ratio of enhancing the killing effect (housefly adults; [9]): 7.4
LD50 (housefly adults; [10]): 0.076 γ/Fly
Ratio of enhancing the killing effect (housefly adults; [11]): 5.1
LD50 (housefly adults; [12]): 0.079 γ/Fly
Ratio of enhancing the killing effect (housefly adults; [2]): 8.3
LD50 (housefly adults; [3]): 0.064 γ/Fly

C#CCOCC(CC=C)(OC)c1ccccc1 (stereo not shown) [Present compound (20)]
Ratio of enhancing the killing effect (housefly adults; [7]): ≥ 19
LD50 (housefly adults; [8]): 0.252 γ/Fly
Ratio of enhancing the killing effect (housefly adults; [9]): 9.8
LD50 (housefly adults; [10]): 0.062 γ/Fly
Ratio of enhancing the killing effect (housefly adults; [11]): 7.0
LD50 (housefly adults; [12]): 0.056 γ/Fly
Ratio of enhancing the killing effect (housefly adults; [2]): 10.8
LD50 (housefly adults; [3]): 0.053 γ/Fly

C#CCOC(=O)C(Cc1ccccc1)(OCC)c1ccccc1 (stereo not drawn) [Present compound (12), Propargyl α-benzyl-α-ethoxyphenylacetate]
Ratio of enhancing the killing effect (housefly adults; [2]): 10.0
LD50 (housefly adults; [3]): 0.052 γ/Fly

C#CCCOC(=O)C(OC)(c1ccccc1)c1ccccc1 [Present compound (16)]
Ratio of enhancing the killing effect (housefly adults; [7]): ≥ 20
LD50 (housefly adults; [8]): 0.25 γ/Fly
Ratio of enhancing the killing effect (housefly adults; [9]): 7.2
LD50 (housefly adults; [10]): 0.083 γ/Fly
Ratio of enhancing the killing effect (housefly adults; [11]): 5.5
LD50 (housefly adults; [12]): 0.064 γ/Fly
Ratio of enhancing the killing effect (housefly adults; [2]): 9.5
LD50 (housefly adults; [3]): 0.055 γ/Fly

CC(C)=CC1C(C(=O)OCc2coc(Cc3ccccc3)c2)C1(C)C (stereo not shown) [Chrysron, 5-benzyl-3-furylmethyl chrysanthemate, reference compound]
LD50 (housefly adults; in vivo): 0.026 γ/Fly and 0.024 γ/Fly and 0.027 γ/Fly
Ratio of enhancing the killing effect (housefly adults; [6]): 1.0

C#CCOC(=O)C(CCCCCC)(OC)c1ccccc1 (stereo not drawn) [Present compound (8), Propargyl α-(n-hexyl)-α-methoxyphenylacetate]
Ratio of enhancing the killing effect (housefly adults; [2]): 4.5
LD50 (housefly adults; [3]): 0.128 γ/Fly

C#CCC(OC)(C(=O)OCC=C)c1ccccc1 (stereo not drawn) [Present compound (15), Allyl α-propargyl-α-methoxyphenylacetate]
Ratio of enhancing the killing effect (housefly adults; [2]): 8.7
LD50 (housefly adults; [3]): 0.060 γ/Fly

CCCCC(CC)CN1C(=O)C2C3C=CC(C3)C2C1=O (stereo not shown) [MGK-264, N-(2-ethylhexyl)bicyclo[2,2,1]-hept-5-ene-anhydro-phthalic acid-2,3-dicarboxyimide]
synergistic effect on allethrin compared with natural pyrethrin [1]: more excellent synergistic effect on allethrin than that on natural pyrethrin

C#CCOC(=O)C(CC=C)(OCC)c1ccccc1 (stereo not drawn) [Present compound (5), Propargyl α-allyl-α-ethoxyphenylacetate]
Ratio of enhancing the killing effect (housefly adults; [7]): ≥ 21
LD50 (housefly adults; [8]): 0.238 γ/Fly
Ratio of enhancing the killing effect (housefly adults; [9]): 9.8
LD50 (housefly adults; [10]): 0.057 γ/Fly
Ratio of enhancing the killing effect (housefly adults; [11]): 5.6
LD50 (housefly adults; [12]): 0.071 γ/Fly
Ratio of enhancing the killing effect (housefly adults; [2]): 12.5
LD50 (housefly adults; [3]): 0.042 γ/Fly

CNC(=O)Oc1ccc(C)c(C)c1 [3,4-Dimethylphenyl-N-methylcarbamate, 3,4-dimethylphenyl-N-methylcarbamate, reference compound]
LD50 (housefly adults; [5]): ≥ 5 γ/Fly
Ratio of enhancing the killing effect (housefly adults; [6]): 1.0

C#CCCOCC(CCC)(OC)c1ccccc1 (stereo not shown) [Present compound (26)]
Ratio of enhancing the killing effect (housefly adults; [2]): 7.0
LD50 (housefly adults; [3]): 0.081 γ/Fly

C#CCOC(=O)C(Cc1ccccc1)(OC)c1ccccc1 (stereo not drawn) [Present compound (11), Propargyl α-benzyl-α-methoxyphenylacetate]
Ratio of enhancing the killing effect (housefly adults; [7]): ≥ 24
LD50 (housefly adults; [8]): 0.21 γ/Fly
Ratio of enhancing the killing effect (housefly adults; [9]): 10.0
LD50 (housefly adults; [10]): 0.060 γ/Fly
Ratio of enhancing the killing effect (housefly adults; [11]): 6.5
LD50 (housefly adults; [12]): 0.054 γ/Fly
Ratio of enhancing the killing effect (housefly adults; [2]): 11.3
LD50 (housefly adults; [3]): 0.046 γ/Fly

C=CCC1=C(C)C(OC(=O)C2C(C=C(C)C)C2(C)C)CC1=O (stereo not shown) [Allethrin, reference compound]
LD50 (housefly adults; [5]): 0.560 γ/Fly and 0.60 γ/Fly and 0.610 γ/Fly
Ratio of enhancing the killing effect (housefly adults; [6]): 1.0

C#CCCOC(=O)C(CC=C)(OC)c1ccccc1 (stereo not shown) [Present compound (10)]
LD50 (housefly adults; [4]): ≥ 2 γ/Fly
Ratio of enhancing the killing effect (housefly adults; [2]): 6.9
LD50 (housefly adults; [3]): 0.077 γ/Fly

C#CCOCC(CC(C)C)(OCC=C)c1ccccc1 (stereo not drawn) [Present compound (22), Propargyl α-(iso-butyl)-α-allyloxyphenethyl ether]
Ratio of enhancing the killing effect (housefly adults; [2]): 10.2
LD50 (housefly adults; [3]): 0.056 γ/Fly

C#CCOC(=O)C(CC=C)(OCCC)c1ccccc1 (stereo not drawn) [Present compound (7), Propargyl α-allyl-α-(n-propyloxy)-phenylacetate]
Ratio of enhancing the killing effect (housefly adults; [2]): 7.9
LD50 (housefly adults; [3]): 0.067 γ/Fly

C#CCOC(=O)C(CCC=C)(OC)c1ccccc1 (stereo not drawn) [Present compound (4), Propargyl α-butenyl-α-methoxyphenylacetate]
Ratio of enhancing the killing effect (housefly adults; [2]): 7.5
LD50 (housefly adults; [3]): 0.071 γ/Fly

Source: patent US3970703A, “Phenylacetic acid derivatives” (Sumitomo Chemical Company, Limited, priority 1970, dated 1976)
